Source: patent US11292821B2, “Peptides and combination of peptides for use in immunotherapy against lung cancer, including NSCLC, SCLC and other cancers” (Immatics Biotechnologies GmbH, priority 2017, dated 2022)

Key:
CD8+ T cells = assay: In vitro T-cell priming assay with aAPCs (in vitro immunogenicity for MHC class I presented peptides); assay type: cell-based, human; conditions: in vitro immunogenicity, HLA B*07
HLA-B*07 = HLA-B*07 (Homo sapiens, UniProt P01889); assay: MHC binding assay (UV-ligand exchange, β2m ELISA)
Description: Candidate peptides for T cell based therapies according to the present invention were further tested for their MHC binding capacity (affinity). The individual peptide-MHC complexes were produced by UV-ligand exchange, where a UV-sensitive peptide is cleaved upon UV-irradiation, and exchanged with the peptide of interest as analyzed. Only peptide candidates that can effectively bind and stabilize the peptide-receptive MHC molecules prevent dissociation of the MHC complexes. To determine the yield of the exchange reaction, an ELISA was performed based on the detection of the light chain (β2m) of stabilized MHC complexes. The assay was performed as generally described in Rodenko et al. (Rodenko et al., 2006).
96 well MAXISorp plates (NUNC) were coated over night with 2 ug/ml streptavidin in PBS at room temperature, washed 4× and blocked for 1 h at 37° C. in 2% BSA containing blocking buffer. […] Peptide-MHC monomers of the UV-exchange reaction were diluted 100-fold in blocking buffer. Samples were incubated for 1 h at 37° C., washed four times, incubated with 2 ug/ml HRP conjugated anti-β2m for 1h at 37° C., washed again and detected with TMB solution that is stopped with […]. Absorption was measured at 450 nm. Candidate peptides that show a high exchange yield (preferably higher than 50%, most preferred higher than 75%) are generally preferred for a generation and production of antibodies or fragments thereof, and/or T cell receptors or fragments thereof, as they show sufficient avidity to the MHC molecules and prevent dissociation of the MHC complexes.

Peptide exchange (peptide exchange yield, MHC class I binding score) (HLA-B*07) | Substance | Wells positive [%] (CD8+ T cells)
“++++” (>75% = ++++) | 226 (SPRMSGLLSQT; listed as Homo sapiens) [compound 226] | “+++” (50%-69% = +++)
“++++” (>75% = ++++) | 241 (SARLATDAL; listed as Homo sapiens) [compound 241] | “+++” (50%-69% = +++)
“+++” (>50 = +++) | 245 (RIREHVPQL; listed as Homo sapiens) [compound 245] | “++” (20%-49% = ++)
“++++” (>75% = ++++) | 249 (VPSSRILQL; listed as Homo sapiens) [compound 249] | “+++” (50%-69% = +++)
“++++” (>75% = ++++) | 252 (SPDIRNTTV; listed as Homo sapiens) [compound 252] | “+” (<20% = +)
“++++” (>75% = ++++) | 285 (FPSFLTNSL; listed as Homo sapiens) [compound 285] | “++++” (>=70% = ++++)
“+++” (>50 = +++) | 292 (SPQRLRGLLL; listed as Homo sapiens) [compound 292] | “+++” (50%-69% = +++)
“++++” (>75% = ++++) | 293 (RPRSALPRLLLP; listed as Homo sapiens) [compound 293] | “++” (20%-49% = ++)
“++++” (>75% = ++++) | 294 (GPTPNTGAAL; listed as Homo sapiens) [compound 294] | “+++” (50%-69% = +++)
“++++” (>75% = ++++) | 460 (MPMAGDMNGL; listed as Homo sapiens) [compound 460] | “++” (20%-49% = ++)
“++++” (>75% = ++++) | 462 (RPFHTRATV; listed as Homo sapiens) [compound 462] | “++” (20%-49% = ++)

Further lines, the substance ahead of its results:

Substance | Peptide exchange (peptide exchange yield, MHC class I binding score) (HLA-B*07) | Wells positive [%] (CD8+ T cells)
228 (YPRGNHWAVGHL; listed as Homo sapiens) [compound 228] | “++++” (>75% = ++++) | “++” (20%-49% = ++)
231 (RPRALRDLQL; listed as Homo sapiens) [compound 231] | “++++” (>75% = ++++) | “++” (20%-49% = ++)
232 (RPRALRDLQLL; listed as Homo sapiens) [compound 232] | “++++” (>75% = ++++) | “+++” (50%-69% = +++)
233 (KPYQGNPTF; listed as Homo sapiens) [compound 233] | “++++” (>75% = ++++) | “+” (<20% = +)
237 (RPAATAVISL; listed as Homo sapiens) [compound 237] | “+++” (>50 = +++) | “+” (<20% = +)
242 (SPRWLPVSL; listed as Homo sapiens) [compound 242] | “++++” (>75% = ++++) | “++++” (>=70% = ++++)
244 (FPYVRDFVM; listed as Homo sapiens) [compound 244] | “++++” (>75% = ++++) | “+” (<20% = +)
248 (IPNWARQDL; listed as Homo sapiens) [compound 248] | “++++” (>75% = ++++) | “++++” (>=70% = ++++)
250 (SPRDFLSGL; listed as Homo sapiens) [compound 250] | “++++” (>75% = ++++) | “+” (<20% = +)
274 (TPYQEHVAL; listed as Homo sapiens) [compound 274] | “+++” (>50 = +++) | “+” (<20% = +)
